According to patent US12162840B2, “Herbicidal compositions” (SYNGENTA PARTICIPATIONS AG, priority 2018, dated 2024):

Tested on: warm season plant species
Experiment: B2 Post-emergence efficacy Test 2, warm season plant species
Assay type: in vivo
Details: 15 days after application, 0-100 scale, 0=no damage, 100=total kill; for Herbicidal activity, ABUTH: Abutilon theophrasti; for Herbicidal activity, AMARE: Amaranthus retroflexus; for Herbicidal activity, BIDPI: Bidens pilosa; for Herbicidal activity, BRAPL: Brachiaria plantaginea; for Herbicidal activity, DIGSA: Digitaria sanguinalis; for Herbicidal activity, ECHCG: Echinochloa crus galli; for Herbicidal activity, ELEIN: Eleisine indica; for Herbicidal activity, EPHHL: Euphorbia hetrophylla; for Herbicidal activity, GLXMA: Glycine max; for Herbicidal activity, IPOHE: Ipomoea hederacea; for Herbicidal activity, ORYSA: Orysa sativa; for Herbicidal activity, PANMI: Panicum miliaceum; for Herbicidal activity, SETFA: Setaria faberi; for Herbicidal activity, SIDSP: Sida spinosa; for Herbicidal activity, SORVU: Sorghum bicolour; for Herbicidal activity, XANST: Xanthium strumarium; for Herbicidal activity, ZEAMX: Zea mays
Protocol: Seeds of a variety of test species (see Table B1) were sown in standard soil in pots. After cultivation for 12 days (post-emergence) under controlled conditions in a glasshouse (at 24/18° C. or 20/16° C., at day/night; 16 hours light; 65% humidity), the plants were sprayed with an aqueous spray solution derived from the formulation of the technical active ingredient dissolved in IF50 (see Table B2 for composition) and adjuvant (Genapol XO80) was added to the spray solution at a rate of 0.2% v/v. [table] [table] After application, the test plants were grown in a glasshouse under controlled conditions (as above) and watered twice daily. Herbicidal activity was evaluated 15 days after application on a 0-100 scale. The results, where 0=no damage to test plant and 100=total kill of test plant are shown below in Tables 6 to 9.

Cc1nn(C)c(=O)c(-c2c(F)ccc(Cl)c2CCc2ccccc2C(F)(F)F)c1O [Compound 1.066]
Herbicidal activity, ABUTH (15 g/Ha): 20 | Herbicidal activity, ABUTH (30 g/Ha): 50 | Herbicidal activity, ABUTH (60 g/Ha): 50 | Herbicidal activity, ABUTH (125 g/Ha): 90 | Herbicidal activity, ABUTH (250 g/Ha): 90 | Herbicidal activity, ABUTH (500 g/Ha): 100 | Herbicidal activity, AMARE (15 g/Ha): 90 | Herbicidal activity, AMARE (30 g/Ha): 90 | Herbicidal activity, AMARE (60 g/Ha): 90 | Herbicidal activity, AMARE (125 g/Ha): 100 | Herbicidal activity, AMARE (250 g/Ha): 100 | Herbicidal activity, AMARE (500 g/Ha): 100 | Herbicidal activity, BIDPI (15 g/Ha): 50 | Herbicidal activity, BIDPI (30 g/Ha): 60 | Herbicidal activity, BIDPI (60 g/Ha): 70 | Herbicidal activity, BIDPI (125 g/Ha): 80 | Herbicidal activity, BIDPI (250 g/Ha): 90 | Herbicidal activity, BIDPI (500 g/Ha): 90 | Herbicidal activity, BRAPL (15 g/Ha): 0 | Herbicidal activity, BRAPL (30 g/Ha): 60 | Herbicidal activity, BRAPL (125 g/Ha): 80 | Herbicidal activity, BRAPL (250 g/Ha): 70 | Herbicidal activity, BRAPL (500 g/Ha): 100 | Herbicidal activity, DIGSA (15 g/Ha): 0 | Herbicidal activity, DIGSA (30 g/Ha): 20 | Herbicidal activity, DIGSA (60 g/Ha): 20 | Herbicidal activity, DIGSA (125 g/Ha): 40 | Herbicidal activity, DIGSA (250 g/Ha): 70 | Herbicidal activity, DIGSA (500 g/Ha): 70 | Herbicidal activity, ECHCG (15 g/Ha): 20 | Herbicidal activity, ECHCG (30 g/Ha): 80 | Herbicidal activity, ECHCG (60 g/Ha): 90 | Herbicidal activity, ECHCG (125 g/Ha): 90 | Herbicidal activity, ECHCG (250 g/Ha): 90 | Herbicidal activity, ECHCG (500 g/Ha): 90 | Herbicidal activity, ELEIN (15 g/Ha): 0 | Herbicidal activity, ELEIN (30 g/Ha): 20 | Herbicidal activity, ELEIN (60 g/Ha): 70 | Herbicidal activity, ELEIN (125 g/Ha): 70 | Herbicidal activity, ELEIN (250 g/Ha): 70 | Herbicidal activity, ELEIN (500 g/Ha): 80 | Herbicidal activity, EPHHL (15 g/Ha): 60 | Herbicidal activity, EPHHL (30 g/Ha): 70 | Herbicidal activity, EPHHL (60 g/Ha): 80 | Herbicidal activity, EPHHL (125 g/Ha): 90 | Herbicidal activity, EPHHL (250 g/Ha): 100 | Herbicidal activity, EPHHL (500 g/Ha): 100 | Herbicidal activity, GLXMA (15 g/Ha): 20 | Herbicidal activity, GLXMA (30 g/Ha): 40 | Herbicidal activity, GLXMA (60 g/Ha): 70 | Herbicidal activity, GLXMA (125 g/Ha): 70 | Herbicidal activity, GLXMA (250 g/Ha): 90 | Herbicidal activity, GLXMA (500 g/Ha): 90 | Herbicidal activity, IPOHE (15 g/Ha): 70 | Herbicidal activity, IPOHE (30 g/Ha): 90 | Herbicidal activity, IPOHE (60 g/Ha): 90 | Herbicidal activity, IPOHE (125 g/Ha): 100 | Herbicidal activity, IPOHE (250 g/Ha): 100 | Herbicidal activity, IPOHE (500 g/Ha): 100 | Herbicidal activity, ORYSA (15 g/Ha): 0 | Herbicidal activity, ORYSA (30 g/Ha): 0 | Herbicidal activity, ORYSA (60 g/Ha): 0 | Herbicidal activity, ORYSA (125 g/Ha): 10 | Herbicidal activity, ORYSA (250 g/Ha): 20 | Herbicidal activity, ORYSA (500 g/Ha): 40 | Herbicidal activity, PANMI (15 g/Ha): 0 | Herbicidal activity, PANMI (30 g/Ha): 50 | Herbicidal activity, PANMI (60 g/Ha): 60 | Herbicidal activity, PANMI (125 g/Ha): 80 | Herbicidal activity, PANMI (250 g/Ha): 100 | Herbicidal activity, PANMI (500 g/Ha): 100 | Herbicidal activity, SETFA (15 g/Ha): 0 | Herbicidal activity, SETFA (30 g/Ha): 70 | Herbicidal activity, SETFA (60 g/Ha): 70 | Herbicidal activity, SETFA (125 g/Ha): 80 | Herbicidal activity, SETFA (250 g/Ha): 90 | Herbicidal activity, SETFA (500 g/Ha): 90 | Herbicidal activity, SIDSP (15 g/Ha): 40 | Herbicidal activity, SIDSP (30 g/Ha): 80 | Herbicidal activity, SIDSP (60 g/Ha): 80 | Herbicidal activity, SIDSP (125 g/Ha): 90 | Herbicidal activity, SIDSP (250 g/Ha): 90 | Herbicidal activity, SIDSP (500 g/Ha): 100 | Herbicidal activity, SORVU (15 g/Ha): 0 | Herbicidal activity, SORVU (30 g/Ha): 20 | Herbicidal activity, SORVU (60 g/Ha): 60 | Herbicidal activity, SORVU (125 g/Ha): 80 | Herbicidal activity, SORVU (250 g/Ha): 90 | Herbicidal activity, SORVU (500 g/Ha): 100 | Herbicidal activity, XANST (60 g/Ha): 90 | Herbicidal activity, XANST (250 g/Ha): 100 | Herbicidal activity, XANST (500 g/Ha): 100 | Herbicidal activity, ZEAMX (15 g/Ha): 0 | Herbicidal activity, ZEAMX (30 g/Ha): 20 | Herbicidal activity, ZEAMX (60 g/Ha): 20 | Herbicidal activity, ZEAMX (125 g/Ha): 20 | Herbicidal activity, ZEAMX (250 g/Ha): 30 | Herbicidal activity, ZEAMX (500 g/Ha): 70
